Measurements from patent US10869871B2, “Compositions and methods of modulating short-chain dehydrogenase activity” (CASE WESTERN RESERVE UNIVERSITY, priority 2013, dated 2020).

How the values were obtained:
[1] = Survival of mice after whole body irradiation; format: in vivo, mouse
[2] = test system: 15-PGDH-luciferase fusion reporter in V9m, LS174T and V503 colon cancer cell lines; experiment: 15-PGDH-luciferase fusion reporter induction in colon cancer cell lines; format: cell-based; settings: V9m, LS174T, V503; relative to DMSO
cell culture = experiment: Toxicity: concentration needed to decrease cell numbers in a cell culture assay; format: cell-based
Procedure: (§1) Time to inhibition refers to the time needed to inhibit the generation of NADH by 15-PGDH from the moment with drug is added into the reaction mix. Delta Tm refers to the shift in melting temperature of recombinant 15-PGDH in the presence of drug (with cofactor NADH also present). Concentration of Full Cell Line Reporter Induction refers to the concentration of drug that needs to be added to reporter cell line to achieve maximal induction of the 15-PGDH-luciferase gene fusion reporter cassette, as measured by luciferase assays. Hepatocyte stability refers to the half-life of compound in the presence of hepatocytes in culture. Toxicity refers to the concentration of compound needed to decrease cell numbers in a cell culture assay.

A549 cells = experiment: PGE2 levels in medium of IL1-beta stimulated A549 cells; format: cell-based
Hepatocyte stability = format: in vitro ADME; settings: compound in presence of hepatocytes in culture; in words
Procedure: as §1

bone marrow = experiment: Competitive bone marrow transplant chimerism (CD45.2 donor treated); format: in vivo, mouse; settings: donor 5 mg/kg IP daily for 3 doses; weeks 12 and 16
Procedure: On day 3 mice were sacrificed, marrow flushed and mixed at a 1:1 ratio with vehicle treated CD45.1 marrow. 2 million whole BM cells were injected into the tail vein of lethally irradiated CD45.1 mice and percent chimerism measured via flow cytometry at weeks 8, 12, 16.

blood and bone marrow = experiment: Blood and bone marrow recovery after transplant of 500,000 donor marrow cells; format: in vivo, mouse
liver = experiment: Liver regeneration after partial hepatectomy, C57BL/6J mice; format: in vivo; settings: 5 mg/kg IP bid, one mouse each
[3] = Survival after acetaminophen (Tylenol) LD50 dose 600 mg/kg IP; format: in vivo, mouse; settings: for number of mice surviving: first dose immediately after Tylenol injection;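 as to all read-outs here: controls were mice given only vehicle, dosed once or twice per day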
15-PGDH protein = experiment: Western blot of 15-PGDH protein levels in treated cell lines; format: cell-based; settings: […] compound for 48 hours

Structure (SMILES): CCCC[S+]([O-])c1sc2nc(-c3cccs3)cc(-c3ccccc3)c2c1N (stereo not drawn) [SW033291, 2-(butylsulfinyl)-4-phenyl-6-(thiophen-2-yl)thieno[2,3-b]pyridin-3-amine]
- number of mice surviving ([1]; 7 Gy, 5 mg/kg IP daily for 7 doses, Day 0): 3
- number of mice surviving ([1]; 7 Gy, 5 mg/kg IP daily for 7 doses, Day 6): 3
- number of mice surviving ([1]; 7 Gy, 5 mg/kg IP daily for 7 doses, Day 7): 3
- number of mice surviving ([1]; 7 Gy, 5 mg/kg IP daily for 7 doses, Day 8): 3
- number of mice surviving ([1]; 7 Gy, 5 mg/kg IP daily for 7 doses, Day 9): 3
- number of mice surviving ([1]; 7 Gy, 5 mg/kg IP daily for 7 doses, Day 10): 3
- number of mice surviving ([1]; 7 Gy, 5 mg/kg IP daily for 7 doses, Day 11): 3
- number of mice surviving ([1]; 7 Gy, 5 mg/kg IP daily for 7 doses, Day 12): 3
- number of mice surviving ([1]; 7 Gy, 5 mg/kg IP daily for 7 doses, Day 13): 3
- number of mice surviving ([1]; 7 Gy, 5 mg/kg IP daily for 7 doses, Day 14): 3
- number of mice surviving ([1]; 7 Gy, 5 mg/kg IP daily for 7 doses, Day 15): 3
- appearance of mice ([1]; 7 Gy, 5 mg/kg IP daily for 7 doses, Day 25 (cell reads Looks Healthy)): Healthy
- number of mice surviving ([1]; 9 Gy, 5 mg/kg IP daily for 7 doses, Day 0): 3
- number of mice surviving ([1]; 9 Gy, 5 mg/kg IP daily for 7 doses, Day 6): 3
- number of mice surviving ([1]; 9 Gy, 5 mg/kg IP daily for 7 doses, Day 7): 3
- number of mice surviving ([1]; 9 Gy, 5 mg/kg IP daily for 7 doses, Day 8): 3
- number of mice surviving ([1]; 9 Gy, 5 mg/kg IP daily for 7 doses, Day 9): 3
- number of mice surviving ([1]; 9 Gy, 5 mg/kg IP daily for 7 doses, Day 10): 3
- number of mice surviving ([1]; 9 Gy, 5 mg/kg IP daily for 7 doses, Day 11): 3
- number of mice surviving ([1]; 9 Gy, 5 mg/kg IP daily for 7 doses, Day 12): 2
- number of mice surviving ([1]; 9 Gy, 5 mg/kg IP daily for 7 doses, Day 13): 2
- number of mice surviving ([1]; 9 Gy, 5 mg/kg IP daily for 7 doses, Day 14): 1
- number of mice surviving ([1]; 9 Gy, 5 mg/kg IP daily for 7 doses, Day 15): 0
- number of mice surviving ([1]; 11 Gy, 5 mg/kg IP 1 dose/daily for 7 days (Table 7), Day 0): 3
- number of mice surviving ([1]; 11 Gy, 5 mg/kg IP 1 dose/daily for 7 days (Table 7), Day 5): 3
- number of mice surviving ([1]; 11 Gy, 5 mg/kg IP 1 dose/daily for 7 days (Table 7), Day 6): 3
- number of mice surviving ([1]; 11 Gy, 5 mg/kg IP 1 dose/daily for 7 days (Table 7), Day 7): 3
- number of mice surviving ([1]; 11 Gy, 5 mg/kg IP 1 dose/daily for 7 days (Table 7), Day 8): 2
- number of mice surviving ([1]; 11 Gy, 5 mg/kg IP 1 dose/daily for 7 days (Table 7), Day 9): 1
- number of mice surviving ([1]; 11 Gy, 5 mg/kg IP 1 dose/daily for 7 days (Table 7), Day 10): 0
- number of mice surviving ([1]; 11 Gy, 5 mg/kg IP 1 dose/daily, continuous every day, Day 0): 3
- number of mice surviving ([1]; 11 Gy, 5 mg/kg IP 1 dose/daily, continuous every day, Day 5): 3
- number of mice surviving ([1]; 11 Gy, 5 mg/kg IP 1 dose/daily, continuous every day, Day 6): 3
- number of mice surviving ([1]; 11 Gy, 5 mg/kg IP 1 dose/daily, continuous every day, Day 7): 3
- number of mice surviving ([1]; 11 Gy, 5 mg/kg IP 1 dose/daily, continuous every day, Day 8): 3
- number of mice surviving ([1]; 11 Gy, 5 mg/kg IP 1 dose/daily, continuous every day, Day 9): 2
- number of mice surviving ([1]; 11 Gy, 5 mg/kg IP 1 dose/daily, continuous every day, Day 10): 0
- number of mice surviving ([1]; 11 Gy, 5 mg/kg IP 2 dose daily for 7 days, Day 0): 3
- number of mice surviving ([1]; 11 Gy, 5 mg/kg IP 2 dose daily for 7 days, Day 5): 3
- number of mice surviving ([1]; 11 Gy, 5 mg/kg IP 2 dose daily for 7 days, Day 6): 3
- number of mice surviving ([1]; 11 Gy, 5 mg/kg IP 2 dose daily for 7 days, Day 7): 3
- number of mice surviving ([1]; 11 Gy, 5 mg/kg IP 2 dose daily for 7 days, Day 8): 3
- number of mice surviving ([1]; 11 Gy, 5 mg/kg IP 2 dose daily for 7 days, Day 9): 2
- number of mice surviving ([1]; 11 Gy, 5 mg/kg IP 2 dose daily for 7 days, Day 10): 0
- longer survival versus vehicle ([1]; 11Gy, 5 mg/kg IP daily for 7 doses): 48 h
- number of mice surviving ([1]; 11 Gy, 5 mg/kg IP daily for 7 doses (Table 6), Day 0): 3
- number of mice surviving ([1]; 11 Gy, 5 mg/kg IP daily for 7 doses (Table 6), Day 5): 3
- number of mice surviving ([1]; 11 Gy, 5 mg/kg IP daily for 7 doses (Table 6), Day 6): 3
- number of mice surviving ([1]; 11 Gy, 5 mg/kg IP daily for 7 doses (Table 6), Day 7): 3
- number of mice surviving ([1]; 11 Gy, 5 mg/kg IP daily for 7 doses (Table 6), Day 8): 3
- number of mice surviving ([1]; 11 Gy, 5 mg/kg IP daily for 7 doses (Table 6), Day 9): 2
- number of mice surviving ([1]; 11 Gy, 5 mg/kg IP daily for 7 doses (Table 6), Day 10): 0
- longer survival on average versus vehicle ([1]; 11Gy, any of the 5 mg/kg dosing schedules): 1 to 2 days
- luciferase activity of 15-PGDH luciferase fusion cells [2]: increase luciferase activity
- Toxicity (cell culture): >10 µM
- rank of PGE2 level in medium (A549 cells; 100 nM concentration of drug): next highest level of PGE2
- PGE2 level in medium, reflecting 15-PGDH activity (A549 cells; IL1-beta 23 hours, compound added for last 5 hours): clear inhibition of 15-PGDH activity
- highest PGE2 level achieved in medium (A549 cells; IL-1β 16 h, compound 8 h): 3000 pg/mL
- Hepatocyte stability (Hepatocyte stability): Stable > couple hrs
- percent blood chimerism of CD45.2 marked cells (bone marrow): significantly increased
- total platelet count versus control (blood and bone marrow; day 5 after transplant): significantly higher total platelet count
- total white count versus control (blood and bone marrow; day 5 after transplant): significantly higher total white count
- platelets (blood and bone marrow; day 8 after transplant): 77,000
- neutrophils (blood and bone marrow; day 12 after transplant): 332
- neutrophils (blood and bone marrow; day 18 after transplant): 835
- serum ALT levels versus control (liver): lower
- survival versus control ([3]; 5 mg/kg IP beginning immediately following acetaminophen, once or twice daily, through 120 hours): No difference
- Survival (number of mice) ([3]; 5 mg/kg IP bid from 3 hours prior to acetaminophen, 6 doses, cohort of 6, 0 hrs): 6
- Survival (number of mice) ([3]; 5 mg/kg IP bid from 3 hours prior to acetaminophen, 6 doses, cohort of 6, 16 hr): 6
- Survival (number of mice) ([3]; 5 mg/kg IP bid from 3 hours prior to acetaminophen, 6 doses, cohort of 6, 24 hrs): 5
- Survival (number of mice) ([3]; 5 mg/kg IP bid from 3 hours prior to acetaminophen, 6 doses, cohort of 6, 48 hrs): 3
- Survival (number of mice) ([3]; 5 mg/kg IP bid from 3 hours prior to acetaminophen, 6 doses, cohort of 6, 64 hrs): 3
- Survival (number of mice) ([3]; 5 mg/kg IP bid from 3 hours prior to acetaminophen, 6 doses, cohort of 6, 72 hrs): 3
- Survival (number of mice) ([3]; 5 mg/kg IP bid from 3 hours prior to acetaminophen, 6 doses, cohort of 6, 88 hr): 3
- Survival (number of mice) ([3]; 5 mg/kg IP bid from 3 hours prior to acetaminophen, 6 doses, cohort of 6, 96 hr): 3
- Survival (number of mice) ([3]; 5 mg/kg IP bid from 3 hours prior to acetaminophen, 6 doses, cohort of 6, 112 hr): 3
- Survival (number of mice) ([3]; 5 mg/kg IP bid from 3 hours prior to acetaminophen, 6 doses, cohort of 6, 120 hr): 3
- Survival (number of mice) ([3]; 5 mg/kg IP bid from 48 hours prior to acetaminophen, 9 doses, cohort of 12, 0 hrs): 12
- Survival (number of mice) ([3]; 5 mg/kg IP bid from 48 hours prior to acetaminophen, 9 doses, cohort of 12, 16 hr): 12
- Survival (number of mice) ([3]; 5 mg/kg IP bid from 48 hours prior to acetaminophen, 9 doses, cohort of 12, 24 hrs): 12
- Survival (number of mice) ([3]; 5 mg/kg IP bid from 48 hours prior to acetaminophen, 9 doses, cohort of 12, 40 hrs): 11
- Survival (number of mice) ([3]; 5 mg/kg IP bid from 48 hours prior to acetaminophen, 9 doses, cohort of 12, 48 hrs): 10
- Survival (number of mice) ([3]; 5 mg/kg IP bid from 48 hours prior to acetaminophen, 9 doses, cohort of 12, 64 hrs): 10
- Survival (number of mice) ([3]; 5 mg/kg IP bid from 48 hours prior to acetaminophen, 9 doses, cohort of 12, 72 hrs): 10
- Survival (number of mice) ([3]; 5 mg/kg IP bid from 48 hours prior to acetaminophen, 9 doses, cohort of 12, 88 hr): 10
- Survival (number of mice) ([3]; 5 mg/kg IP bid from 48 hours prior to acetaminophen, 9 doses, cohort of 12, 96 hr): 10
- Survival (number of mice) ([3]; 5 mg/kg IP bid from 48 hours prior to acetaminophen, 9 doses, cohort of 12, 112 hr): 10
- Survival (number of mice) ([3]; 5 mg/kg IP bid from 48 hours prior to acetaminophen, 9 doses, cohort of 12, 120 hr): 10
- number of mice surviving ([3]; 1 dose daily, cohort of 6, 0 hrs): 6
- number of mice surviving ([3]; 1 dose daily, cohort of 6, 16 hr): 6
- number of mice surviving ([3]; 1 dose daily, cohort of 6, 24 hrs): 6
- number of mice surviving ([3]; 2 dose daily, cohort of 6, 0 hrs): 6
- number of mice surviving ([3]; 2 dose daily, cohort of 6, 16 hr): 6
- number of mice surviving ([3]; 2 dose daily, cohort of 6, 24 hrs): 6
- number of mice surviving ([3]; 2 dose daily, cohort of 6, 48 hrs): 3
- number of mice surviving ([3]; 2 dose daily, cohort of 6, 64 hrs): 3
- number of mice surviving ([3]; 2 dose daily, cohort of 6, 72 hrs): 3
- number of mice surviving ([3]; 2 dose daily, cohort of 6, 88 hr): 3
- number of mice surviving ([3]; 2 dose daily, cohort of 6, 96 hr): 3
- number of mice surviving ([3]; 2 dose daily, cohort of 6, 112 hr): 3
- number of mice surviving ([3]; 2 dose daily, cohort of 6, 120 hr): 3
- levels of 15-PGDH protein (western blot) (15-PGDH protein): increase levels of 15-PGDH protein
